Values joined by “and” are separate entries in the source; they are usually repeats but may differ in a detail not shown here. Equal entries are not always repeated. “Also recorded” adds a separate entry of the source. Structures can show the parent of a compound that is named as a salt. Where two headings read alike, the source gives them in different places.
Columns and labels:
[1] = tested on: Madin Darby canine kidney (MDCK-I) cells; assay: TEER in MDCK-I cells; format: cell-based; conditions: for 144-hour barrier (TEER) vs control: MDCK-I, treated at 72 hours; for effect on TEER (MAO A, B, AB inhibitors): no concentration given
Procedure: In each case, TEER was measured every 48 hours after treatment.
Transwell cultures were treated at 72 hours (T) post-cell plating.
Transepithelial Resistance (TER) is a common method to screen for barrier integrity. […] Fluorescein isothiocyanate conjugated 10 kD dextran (Invitrogen™) will be added to the apical Transwell™ compartment, fixed, and examined for dextran permeation (Umeda et al., 2006).
Amphiregulin (AR) is an EGFR binding ligand and may play a pivotal role in the previously described signaling axis (see FIGS. 15-17). […] (ii) GI [intestinal epithelial cell (IEC)] and (iii) classical [Madin-Darby canine kidney (MDCK-1)].

recombinant human MAO-A = molecular target: T1, recombinant human MAO-A (Homo sapiens, UniProt P21397); assay: Cell-free Fluorescent Monoamine Oxidase A&B Detection Assay, MAO-A; format: biochemical; conditions: for IC50: read-out: IC50 MAO-A
T1 sequence (P21397 1-527): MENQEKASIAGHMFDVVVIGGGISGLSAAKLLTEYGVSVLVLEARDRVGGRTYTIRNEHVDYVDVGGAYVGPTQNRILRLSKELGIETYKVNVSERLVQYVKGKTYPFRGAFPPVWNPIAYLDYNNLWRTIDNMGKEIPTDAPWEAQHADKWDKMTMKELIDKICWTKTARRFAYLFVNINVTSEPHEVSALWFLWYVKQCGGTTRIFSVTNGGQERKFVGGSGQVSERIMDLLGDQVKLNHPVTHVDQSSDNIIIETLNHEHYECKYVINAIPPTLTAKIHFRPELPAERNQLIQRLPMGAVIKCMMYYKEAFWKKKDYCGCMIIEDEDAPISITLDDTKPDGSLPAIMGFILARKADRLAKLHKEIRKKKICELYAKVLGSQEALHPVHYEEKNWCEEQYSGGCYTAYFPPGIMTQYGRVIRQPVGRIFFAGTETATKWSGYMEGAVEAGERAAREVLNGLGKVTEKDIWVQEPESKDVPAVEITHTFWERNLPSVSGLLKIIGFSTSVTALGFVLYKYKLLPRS
Procedure: (§1) The assay was repeated to confirm data.
(§2) MAO B specific inhibitory activity and selectivity over MAO A is assayed using a commercial kit [Fluoro MAO A and B detection kit (Cell Technology Inc™)]. This kit uses a non-fluorescent detection reagent to measure H2O2 released from the conversion of an MAO A and MAO B substrate specific to its aldehyde. Furthermore, H2O2 oxidizes the detection reagent in a 1:1 stoichiometry to produce a fluorescent product (resorufin). […] This information is then provided to the medicinal chemists to help direct synthesis of subsequent iterations.

[2] = 14 week study, cited from earlier work
[3] = in vitro BBB permeability in MDCK-WT cells; conditions: dog, MDCK
Excerpt: (§3) Wildtype Madin-Darby canine cells (MDCK-WT) were used to predict CNS permeability of compounds PS-RG0103, PS-RG0216, PS-RG0245 and PS-AD0191. […] J Allergy Clin Immunol. 1990; 86(6 pt 2): p. 1025-8.
(§4) Novel MAO B inhibitors selected based on the above screening program will be screened using an in vitro model of blood brain barrier (BBB). Madin-Darby canine kidney (MDCK-WT) and MDCK cells transfected with the human MDR1 gene (MDCK-MDR1) are well established in vitro models used to predict a compound's ability to permeate the blood brain barrier (BBB). […] Apparent permeability (Papp), Efflux ratio (Papp B-A/Papp A-B), as well as the Net flux ratio (Efflux ratioMDCK-MDR1/Efflux ratioMDCK-WT) can be calculated to identify compound BBB permeability and identify compounds that are substrates of P-gp.

recombinant human MAO-B = molecular target: T2, recombinant human MAO-B (Homo sapiens, UniProt P27338); assay: Cell-free Fluorescent Monoamine Oxidase A&B Detection Assay, MAO-B; format: biochemical; conditions: for IC50: read-out: IC50 MAO-B
T2 sequence (P27338 1-520): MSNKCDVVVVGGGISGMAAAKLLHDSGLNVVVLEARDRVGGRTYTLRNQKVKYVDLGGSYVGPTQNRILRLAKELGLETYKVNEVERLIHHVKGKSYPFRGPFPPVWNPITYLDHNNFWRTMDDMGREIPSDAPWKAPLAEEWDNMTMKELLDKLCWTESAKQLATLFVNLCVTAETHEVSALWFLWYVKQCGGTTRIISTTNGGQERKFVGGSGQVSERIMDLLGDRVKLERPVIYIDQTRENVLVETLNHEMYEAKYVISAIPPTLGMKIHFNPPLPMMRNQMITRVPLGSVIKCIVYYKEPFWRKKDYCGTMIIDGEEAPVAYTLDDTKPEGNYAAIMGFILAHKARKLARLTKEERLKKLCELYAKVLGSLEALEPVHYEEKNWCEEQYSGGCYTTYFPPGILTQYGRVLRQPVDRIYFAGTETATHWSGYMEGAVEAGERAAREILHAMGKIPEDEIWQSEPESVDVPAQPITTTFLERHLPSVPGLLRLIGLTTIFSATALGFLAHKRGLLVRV
Procedure: as §1, §2

[4] = hepatocytes, 1 h
[5] = stability assay in mouse liver microsomes; conditions: after 60 minutes at room temperature
[6] = stability assay in human liver microsomes; conditions: after 60 minutes at room temperature
[7] = tested on: Wildtype Madin-Darby canine cells (MDCK-WT); assay: in vitro BBB permeability in MDCK-WT cells; conditions: MDCK-WT; one-way ANOVA, Dunnett's test
Excerpt: as §3, §4

[8] = tested on: IL-8 protein expression in Caco-2 cells; assay: IL-8 protein expression in LPS- and TNFα-treated Caco-2 cells; format: cell-based, human; conditions: Caco-2, 1 μg/mL LPS or 50 ng/mL TNFα + 20 μM compound, 4, 12 or 24 h
Procedure: Caco-2 cells were seeded at 83300 cells/cm^2 on a polystyrene 96-well plate in DMEM medium (#10313-021, Gibco™) containing 10% FBS. On day 5 after seeding, wells were replaced with fresh media containing 2.5% FBS. […] Supernatants of the treated cells were analyzed for pro- and anti-inflammatory cytokine proteins using the Human Proinflammatory 7-Plex Ultra-Sensitive Kit™ (K15008C, MSD™) measured by the Sector Imager 2400A (MSD™). Left panel: Absolute concentrations of IL-8 protein in supernatants of cells treated with control (media only), 1 μg/mL LPS or 50 ng/mL TNFα. […] Values were determined by subtracting supernatant cytokine concentrations of control from supernatant cytokine concentrations of treated cells. Results are expressed as mean±standard deviation (n=3).

[9] = cell-free, recombinant human MAO-A
[10] = cell-free, recombinant human MAO-A, read-out: IC90 MAO-A
[11] = cell-free, recombinant human MAO-A, hydrochloride

| Compound | Papp [3] [×10⁻⁶ cm/s] | IC50 (recombinant human MAO-A; [9]) | IC90 (recombinant human MAO-A; [10]) [µM] | IC90 (recombinant human MAO-B) [µM] | IC50 (recombinant human MAO-B) | other results |
| --- | --- | --- | --- | --- | --- | --- |
| C#CCN(C)CCCOc1ccc(Cl)cc1Cl [Clorgyline] | – | – | – | – | – | 144-hour barrier (TEER) vs control ([1]; 5 μm inhibitor): significantly reduced the barrier; 144-hour barrier (TEER) vs control ([1]; 40 μm inhibitor): significantly reduced the barrier; effect on TEER (MAO A, B, AB inhibitors) [1]: generally reduced TEER; IC90 (recombinant human MAO-A; read-out: IC90 MAO-A (μM)): 0.00624 µM |
| C#CCN(C)[C@H](C)Cc1ccccc1 [L-selegiline] | – | – | – | – | – | total body fat reduction compared to control rats [2]: 30%; food intake vs untreated controls ([2]; rats): comparable; lower weight gain compared to untreated controls ([2]; rats): 14%; plasma leptin levels reduction ([2]; rats): 41% |
| CN(CC(=O)O)[C@H](CC#N)Cc1ccc(OCc2ccc(Cl)c(Cl)c2)cc1.Cl [PS-AD0191, (S)—N-(1-cyano-3-(4-((3,4-dichlorobenzyl)oxy)phenyl)propan-2-yl)-N-methylglycine] | 7.9 ± 1.4 | 54.6 µM | 424 | 1.03 | 0.3 µM and 0.302 µM | – |
| C[C@H](Cc1ccc(OCc2cccc(Cl)c2)cc1)N(C)CC(=O)O [PS-RG0103, N—((R)-(1-(4-(3-chlorobenzyloxy)phenyl)propan-2-yl)(methyl))glycine hydrochloride] | 2.2 ± 0.2 | – | – | 2.27 | 0.27 µM and 0.275 µM | compound remaining, mouse hepatocyte stability [4]: 101%; IC50 MAO-A (μM) (recombinant human MAO-A; [11]): no activity on MAO-A; also recorded: Does not; compound remaining in mouse microsome [5]: 69%; compound remaining in human microsome [6]: 93% |
| C[C@H](Cc1ccc(OCc2ccc(Br)c(Cl)c2)cc1)N(C)CC(=O)O.Cl [PS-RG0216, (R)—N-(1-(4-((4-bromo-3-chlorobenzyl)oxy)phenyl)propan-2-yl)-N-methylglycine hydrochloride] | 1.2 ± 0.1 | – | – | 1.02 | 0.2 µM and 0.203 µM | permeability compared with cetirizine [7]: not different from cetirizine; compound remaining, mouse hepatocyte stability [4]: 100%; IC50 MAO-A (μM) (recombinant human MAO-A; [11]): no activity on MAO-A; also recorded: Does not; compound remaining in mouse microsome [5]: 74%; compound remaining in human microsome [6]: 91%; IL-8 protein expression [8]: attenuation of IL-8 protein expression |
| C[C@H](Cc1ccc(OCc2ccc3ccccc3c2)cc1)N(C)CC(=O)O [PS-RG0227, (R)—N-methyl-N-(1-(4-(naphthalen-2-ylmethoxy)phenyl)propan-2-yl)glycine hydrochloride] | – | 955 µM | 63000 | 843 | 11.5 µM | – |
| C[C@H](Cc1ccc(OCc2ccc(Cl)c(Cl)c2)cc1)N(C)CC(=O)O.Cl [PS-RG0245, (R)—N-(1-(4-((3,4-dichlorobenzyl)oxy)phenyl)propan-2-yl)-N-methylglycine hydrochloride] | 3.6 ± 0.2 | 17.2 µM and 17.1 µM | 99.8 | 0.873 | 0.21 µM and 0.207 µM | permeability compared with cetirizine [7]: not different from cetirizine |
| COC(=O)c1ccc(COc2ccc(C[C@@H](C)N(C)CC(=O)O)cc2)cc1.Cl [PS-RG0246, (R)—N-(1-(4-((4-(methoxycarbonyl)benzyl)oxy)phenyl)propan-2-yl)-N-methylglycine hydrochloride] | – | – | – | 10600 | 361 µM | IC50 MAO-A (μM) (recombinant human MAO-A; [9]): Does not |
| C[C@H](Cc1ccc(OCCc2ccccc2)cc1)N(C)CC(=O)O.Cl [PS-RG0247] | – | – | – | 619 | 19.3 µM | IC50 MAO-A (μM) (recombinant human MAO-A; [9]): Does not |
| COc1cccc(COc2ccc(C[C@@H](C)N(C)CC(=O)O)cc2)c1 [PS-RG0264, (R)—N-(1-(4-((3-methoxybenzyl)oxy)phenyl)propan-2-yl)-N-methylglycine hydrochloride] | – | 359 µM | 78500 | 50.5 | 2.22 µM | – |
| O=C(NCCN1CCOCC1)c1ccc(Cl)cc1 [moclobemide] | – | – | – | – | – | 144-hour barrier (TEER) vs control ([1]; 5 μm inhibitor): increased over control; barrier integrity at low doses ([1]; low doses): small increase in the barrier integrity; effect on TEER (MAO A, B, AB inhibitors) [1]: generally reduced TEER |
| C#CCN(C)Cc1ccccc1 [pargyline] | – | – | – | – | – | 144-hour barrier (TEER) vs control ([1]; 5 μm inhibitor): increased over control; 144-hour barrier (TEER) vs control ([1]; 40 μm inhibitor): increased over control; effect on TEER (MAO A, B, AB inhibitors) [1]: increased TEER |
